Experiment [1] has as its system LC3 protein (LC3-II/LC3-I) in HeLa cells. Kind of experiment: LC3 lipidation assay (LC3-II/LC3-I, Western blot, 24 h treatment). It is filed as cell-based. The note with it: fold change in LC3-II/LC3-I relative to DMSO control. As to the method: (§1) HeLa cells were seeded in 6-well plates (700,000 cells) and allowed to adhere overnight. Media was replaced one hour before administering either vehicle (DMSO) or test compounds. After 24 hours of treatment, the media was discarded, and cells were rinsed once with ice-cold 1×PBS before detached from plates with ice-cold RIPA Lysis and Extraction Buffer (Thermo Fisher Scientific) which was supplemented with protease and phosphatase inhibitors. The resulting cell suspensions were transferred to pre-chilled microcentrifuge tubes, incubated on ice for 20 min with intermittent mixing and then centrifuged at 12,000 rpm for 20 min at 4° C. The supernatants were then aspirated slowly and transferred into new tubes kept on ice. The protein concentration in the samples was determined using BCA kit (Thermo Fisher Scientific) as per manufacturer's instructions.
(§2) For the p62 oligomerization and LC3 lipidation assays, cell lysates were prepared using RIPA buffer supplemented with 2% SDS and benzonase (Sigma). The lysates were then combined with 4× Laemmli protein sample buffer (Bio-Rad), heated at 70° C. for 10 min and subjected to a brief centrifugation of 10-15 seconds.
(§3) For p62 oligomerization and LC3 lipidation assays, lysates containing 30 μg of protein and for BRD4 and FKBP12(F36V) degradation assays, lysates containing 20 μg of protein, were loaded slowly into the wells of 4-20% gradient Tris-glycine gels (Bio-Rad). The gels were run at 100V until completion and transferred onto PVDF membranes. Membranes were blocked using 5% milk in TBS-Tween (0.1%) buffer at room temperature for 1 hour. The membranes were incubated with primary antibody in 5% milk-TBST with shaking, overnight at 4° C. The primary antibodies used were: p62 (Novus Biologicals 2C11, H00008878-MO1), LC3A/B (Cell Signalling Technology D3U4C, 12741S), FKBP12 (Abcam ab24373), BRD4 (Cell Signalling Technology E2A7X, 13440S), GAPDH (Cell Signalling Technology D4C6R, 97166S), and β-Actin (Proteintech 66009-1-Ig). Following primary antibody incubation, membranes were washed thrice with TBST 10 min before and after incubation with secondary-HRP conjugated antibody in 5% milk-TBST for 1 hour at room temperature. The secondary antibodies used were: Anti-Mouse IgG HRP Conjugate (Promega W4021B) and Anti-Rabbit IgG HRP Conjugate (Promega W4011B). For the p62 oligomerization assay, the total protein levels were assessed using Ponceau staining (Thermo Fisher Scientific) of PVDF membrane as per recommendation by manufacturer's guidelines.
(§4) Imaging was acquired using SuperSignal™ West Pico PLUS Chemiluminescent Substrate (Thermo Fisher Scientific) with iBright Invitrogen FL100 imaging system. Band signal intensity, reflective of protein concentrations, were quantified using Invitrogen™ iBright™ Analysis and Image J software.
HeLa cells were treated with compounds for 24 hours to evaluate the effect of these compounds on LC3-II/LC3-I levels, a measure of autophagy activation. The changes in levels of LC3-I, LC3-II and β-Actin (loading control) were assessed by Western blotting, as described in experimental procedures. The fold increase of LC3-II/LC3-I levels induced by compound treatment relative to vehicle control (DMSO) was determined and summarized in Table 9. Specifically, FIGS. 3A-C show Western blot images and their corresponding quantification showing the lipidation levels of LC3 protein (LC3-II/LC3-I) by 24 hours compound treatments at listed concentrations, relative to vehicle control (DMSO) in HeLa cells.

Experiment [2] concerns p62 oligomers in HeLa cells. Kind of experiment: p62 oligomerization assay (Western blot, 24 h treatment). The format is cell-based. The note with it: fold change of p62 oligomer levels relative to DMSO control. As to the method: as §1, §2, §3, §4
HeLa cells were treated with compounds for 24 hours to evaluate the effect of these compounds on p62 oligomerisation activity. The resulting changes in levels of p62 oligomers were assessed by Western blotting, as described in experimental procedures. The fold change of p62 oligomer levels induced by compound treatment relative to vehicle control (DMSO) was determined and summarized in Table 8. Specifically, FIGS. 2A-C show Western blot images and their corresponding quantification showing the levels of high molecular weight (100-200 kDa) p62 oligomers by 24 hours compound treatments at listed concentrations, relative to vehicle control (DMSO) in HeLa cells. Protein loading consistencies was assessed by Ponceau staining (not shown).
(In general: Immunoblotting shows a protein as a band on a membrane.)

As for `Cc1c(Cc2ccccc2)oc2cc(CNCCO)ccc12` [Compound 42, 2-(((2-benzyl-3-methylbenzofuran-6-yl)methyl)amino)ethan-1-ol], the LC3 lipidation result in experiment [1] was “+ (< 2-fold change in LC3-II/LC3-I relative to DMSO control)”. Also, the p62 oligomerization result in experiment [2] was “+ (< 2-fold change relative to DMSO control)”.

Consider `OCCNCc1ccc2cc(CCc3ccc(F)cc3)oc2c1` [Compound 49, 2-(((2-(4-fluorophenethyl)benzofuran-6-yl)methyl)amino)ethan-1-ol], for which the LC3 lipidation entry in experiment [1] is “+ (< 2-fold change in LC3-II/LC3-I relative to DMSO control)”. For the same compound, the p62 oligomerization entry in experiment [2] was “++ (> 2-fold change relative to DMSO control)”.

In the case of `OCCNCc1ccc2cc(Cc3ccc(F)cc3)oc2c1` [compound 12], the LC3 lipidation entry in experiment [1] is recorded as “+ (< 2-fold change in LC3-II/LC3-I relative to DMSO control)”. The p62 oligomerization entry in experiment [2] is on record as “++ (> 2-fold change relative to DMSO control)”.

For the compound `OCCNCc1ccc2cc(Cc3ccccc3)oc2c1` [compound 1], in experiment [1], the LC3 lipidation result is “+ (< 2-fold change in LC3-II/LC3-I relative to DMSO control)”. Also, the p62 oligomerization entry in experiment [2] is “+ (< 2-fold change relative to DMSO control)”.

`OCCNCc1ccc2cc(-c3ccccc3)oc2c1` [Compound 2, 2-(((2-phenylbenzofuran-6-yl)methyl)amino)ethan-1-ol]: the LC3 lipidation entry in experiment [1] is listed as “++ (> 2-fold change in LC3-II/LC3-I relative to DMSO control)”. The p62 oligomerization entry in experiment [2] is “++ (> 2-fold change relative to DMSO control)”.

In the case of `OCCNCc1ccc2cc(Cc3ccc(Cl)cc3)oc2c1` [Compound 13, 2-(((2-(4-chlorobenzyl)benzofuran-6-yl)methyl)amino)ethan-1-ol], the LC3 lipidation result in experiment [1] is given as “++ (> 2-fold change in LC3-II/LC3-I relative to DMSO control)”. For the same compound, the p62 oligomerization result in experiment [2] was “++ (> 2-fold change relative to DMSO control)”.

For the origin of these results see US20250282742A1, “BENZOFURAN DERIVATIVES FOR TARGETING AUTOPHAGY” (Automera PTE. LTD, priority 2024, published 2025).
